Consider 23 molecules from PubChem BioAssay AID330 (DTP/NCI, 2004).

The structures appear in SMILES notation. Where “and” joins values, the source holds several entries; their conditions need not be identical. Equal values may be shown once. Inconclusive results and toxic doses are left out.

This assay deals with P388 leukemia ip, CD2F1 mice, survival T/C. As to the kind of experiment: NCI In Vivo Anticancer Drug Screen. Data for tumor model P388 Leukemia (intraperitoneal) in CD2F1 (CDF1) mice. The settings on record: endpoint: median survival time, higher = longer survival. In short, it runs like this: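 Mice carrying the transplanted tumor received test compound or vehicle. Survival was recorded in each group, and the value is the treated-group measurement divided by that of the vehicle-treated control group.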

[1] abbreviates: dose: 100.0 mg/kg/injection, schedule: Q01DX009 (ip), vehicle: saline with Tween-80.
Setting [2] is: dose: 60.0 mg/kg/injection, schedule: Q01DX005 (ip), vehicle: saline with Tween-80.
Setting [3] is: dose: 120.0 mg/kg/injection, schedule: Q01DX005 (ip), vehicle: saline with Tween-80.
Setting [4] is: dose: 240.0 mg/kg/injection, schedule: Q01DX005 (ip), vehicle: saline with Tween-80.
The mark [5] stands for this setting: dose: 50.0 mg/kg/injection, schedule: Q01DX005 (ip), vehicle: saline with Tween-80.
The mark [6] stands for this setting: dose: 100.0 mg/kg/injection, schedule: Q01DX005 (ip), vehicle: saline with Tween-80.
Where [7] appears, read: dose: 60.0 mg/kg/injection, schedule: Q01DX005 (ip), vehicle: Klucel (hydroxypropylcellulose) (HPC).
The mark [8] stands for this setting: dose: 120.0 mg/kg/injection, schedule: Q01DX005 (ip), vehicle: Klucel (hydroxypropylcellulose) (HPC).
Setting [9] is: dose: 240.0 mg/kg/injection, schedule: Q01DX005 (ip), vehicle: Klucel (hydroxypropylcellulose) (HPC).
Where [10] appears, read: dose: 50.0 mg/kg/injection, schedule: Q01DX005 (ip), vehicle: Klucel (hydroxypropylcellulose) (HPC).
Setting [11] is: dose: 200.0 mg/kg/injection, schedule: Q01DX005 (ip), vehicle: saline with Tween-80.

Consider `C(=P(c1ccccc1)(c1ccccc1)c1ccccc1)[P+](c1ccccc1)(c1ccccc1)c1ccccc1`, for which the T/C (dose: 3.12 mg/kg/injection, schedule: Q01DX009 (ip), vehicle: saline) was 111 % of control; the T/C (dose: 3.12 mg/kg/injection, schedule: Q01DX009 (ip), vehicle: suspension in saline) is 111 % of control; the T/C (dose: 6.25 mg/kg/injection, schedule: Q01DX009 (ip), vehicle: saline) was 104 % of control; the T/C (dose: 6.25 mg/kg/injection, schedule: Q01DX009 (ip), vehicle: suspension in saline) was 112 % of control; the T/C (dose: 12.5 mg/kg/injection, schedule: Q01DX009 (ip), vehicle: suspension in saline) is 119 % of control.

As for `Oc1cc(O)c(Br)c(O)c1`, the T/C by setting is: (dose: 7.5 mg/kg/injection, schedule: Q01DX005 (ip), vehicle: saline) 108 % of control; (dose: 15.0 mg/kg/injection, schedule: Q01DX005 (ip), vehicle: saline) 111 % of control; (dose: 30.0 mg/kg/injection, schedule: Q01DX005 (ip), vehicle: saline) 105 % of control.

Consider `O=C(O)c1cnc2cc(Cl)ccc2n1`, for which the T/C (dose: 25.0 mg/kg/injection, schedule: Q01DX009 (ip), vehicle: saline with Tween-80) is 100 % of control; the T/C (dose: 50.0 mg/kg/injection, schedule: Q01DX009 (ip), vehicle: saline with Tween-80) is 100 % of control; the T/C under setting [1] is 95 % of control.

For `O=Cc1c[nH]c2ccc(Br)cc12`, the T/C by setting is: (dose: 100.0 mg/kg/injection, schedule: Q01DX001 (ip), vehicle: other) 100 % of control; (dose: 200.0 mg/kg/injection, schedule: Q01DX001 (ip), vehicle: other) 90 % of control; (dose: 400.0 mg/kg/injection, schedule: Q01DX001 (ip), vehicle: other) 100 % of control.

Regarding `CCC1(C#N)N=C(c2ccccc2)c2ccccc2N1C(=O)OC` (centres undefined), the T/C was 96 % of control under setting [2], 98 % of control under setting [3] and 98 % of control under setting [4].

Turning to `O=C1CC2COc3ccc(OCCN4CCCC4)cc3C2=NN1c1ccccc1` (centres undefined), the T/C is, setting by setting: under setting [5], 103 % of control; under setting [6], 103 % of control.

For the molecule `[Mn+2].[Mn+2].c1ccc2c(c1)-c1nc-2nc2[n-]c(nc3nc(nc4[n-]c(n1)c1ccccc41)-c1ccccc1-3)c1cc3c4nc5nc(nc6[n-]c(nc7nc(nc([n-]4)c3cc21)-c1ccccc1-7)c1ccccc61)-c1ccccc1-5`, the T/C is 96 % of control under setting [2], 99 % of control under setting [3] and 106 % of control under setting [4].

For `CCOC(=O)c1c(N)[nH]c(SSc2[nH]c(N)c(C(=O)OCC)c2C(=O)OCC)c1C(=O)OCC`, the T/C is 118 % of control (dose: 75.0 mg/kg/injection, schedule: Q01DX009 (ip), vehicle: saline) and 100 % of control (dose: 300.0 mg/kg/injection, schedule: Q01DX009 (ip), vehicle: saline).

As to `CNC/C(Cl)=N/S(=O)(=O)c1ccc(C)cc1`, the T/C was 99 % of control under setting [2], 99 % of control under setting [3] and 105 % of control under setting [4].

Consider `Cc1ccc(N=Nc2c(C)noc2C)c(Br)c1`, for which the T/C under setting [7] is 93 % of control, the T/C under setting [8] was 100 % of control and the T/C under setting [9] is 92 % of control.

In the case of `CCN(CC)CCOC(=O)c1c(C)cc(C)cc1C`, the T/C runs as follows: (dose: 25.0 mg/kg/injection, schedule: Q04DX003 (ip), vehicle: saline) 100 % of control; (dose: 50.0 mg/kg/injection, schedule: Q04DX003 (ip), vehicle: saline) 106 % of control; (dose: 100.0 mg/kg/injection, schedule: Q04DX003 (ip), vehicle: saline) 93 % of control.

With `NC(=O)NC(=O)/C=C/C(=O)OCCCl`, the T/C (dose: 6.25 mg/kg/injection, schedule: Q01DX005 (ip), vehicle: Klucel (hydroxypropylcellulose) (HPC)) is 102 % of control; the T/C (dose: 12.5 mg/kg/injection, schedule: Q01DX005 (ip), vehicle: Klucel (hydroxypropylcellulose) (HPC)) was 89 % of control; the T/C (dose: 25.0 mg/kg/injection, schedule: Q01DX005 (ip), vehicle: Klucel (hydroxypropylcellulose) (HPC)) was 94 % of control; the T/C under setting [10] is 101 % of control.

In the case of `N#Cc1c(NC(=O)C(Cl)(Cl)Cl)sc2c1CCCC2`, the T/C reads like this: under setting [5], 105 % of control; under setting [6], 110 % of control; under setting [11], 117 % of control.

Regarding `c1ccc2cc(N3CCOCC3)ccc2c1`, the T/C under setting [1] was 116 % of control; the T/C (dose: 200.0 mg/kg/injection, schedule: Q01DX009 (ip), vehicle: saline with Tween-80) is 119 % of control; the T/C (dose: 400.0 mg/kg/injection, schedule: Q01DX009 (ip), vehicle: saline with Tween-80) was 116 % of control.

For the molecule `[N-]=[N+]=CC(=O)C1OC1c1ccc2ccccc2c1` (centres undefined), the T/C is 93 % of control (dose: 25.0 mg/kg/injection, schedule: Q01DX005 (ip), vehicle: saline with Tween-80); 100 % of control under setting [5]; 99 % of control under setting [6]; 105 % of control under setting [11].

With `Cc1c(-c2ccccc2)ccnc1/C=N/NC(=S)Nc1ccc(N(C)C)cc1`, the T/C (dose: 3.12 mg/kg/injection, schedule: Q01DX009 (ip), vehicle: saline with Tween-80) was 119 % of control and the T/C (dose: 6.25 mg/kg/injection, schedule: Q01DX009 (ip), vehicle: saline with Tween-80) was 153 % of control.

On to `Cc1ccc2c(c1)P(=O)(c1ccccc1C(O)(C(F)(F)F)C(F)(F)F)c1cc(C)ccc1O2`, for which the T/C by setting is: (dose: 100.0 mg/kg/injection, schedule: Q04DX002 (ip), vehicle: Klucel (hydroxypropylcellulose) (HPC)) 101 % of control; (dose: 200.0 mg/kg/injection, schedule: Q04DX002 (ip), vehicle: Klucel (hydroxypropylcellulose) (HPC)) 94 % of control; (dose: 400.0 mg/kg/injection, schedule: Q04DX002 (ip), vehicle: Klucel (hydroxypropylcellulose) (HPC)) 90 % of control.

As for `Cc1ccc(S(=O)(=O)N(C)C2c3ccccc3Oc3ccccc32)cc1`, the T/C was 106 % of control (dose: 12.5 mg/kg/injection, schedule: Q01DX009 (ip), vehicle: Klucel (hydroxypropylcellulose) (HPC)); 106 % of control (dose: 25.0 mg/kg/injection, schedule: Q01DX009 (ip), vehicle: Klucel (hydroxypropylcellulose) (HPC)); 106 % of control and 87 % of control (dose: 50.0 mg/kg/injection, schedule: Q01DX009 (ip), vehicle: Klucel (hydroxypropylcellulose) (HPC)); 91 % of control (dose: 100.0 mg/kg/injection, schedule: Q01DX009 (ip), vehicle: Klucel (hydroxypropylcellulose) (HPC)); 92 % of control (dose: 200.0 mg/kg/injection, schedule: Q01DX009 (ip), vehicle: Klucel (hydroxypropylcellulose) (HPC)); 92 % of control (dose: 400.0 mg/kg/injection, schedule: Q01DX009 (ip), vehicle: Klucel (hydroxypropylcellulose) (HPC)).

On to `CCOC(=O)C(CCC[n+]1ccc2ccccc2c1)C(=O)OCC`, for which the T/C under setting [10] is 96 % of control; the T/C (dose: 100.0 mg/kg/injection, schedule: Q01DX005 (ip), vehicle: Klucel (hydroxypropylcellulose) (HPC)) was 98 % of control; the T/C (dose: 200.0 mg/kg/injection, schedule: Q01DX005 (ip), vehicle: Klucel (hydroxypropylcellulose) (HPC)) was 98 % of control.

Turning to `Cc1onc(-c2c(F)cccc2Cl)c1C(=O)Nc1cc2cc([N+](=O)[O-])ccc2oc1=O`, the T/C runs as follows: under setting [2], 95 % of control; under setting [3], 97 % of control; under setting [4], 92 % of control.

Take `CC(O)CN(CCN(CC(C)O)CC(C)O)CC(C)O.[Cl-].[Co+2]` (centres undefined): the T/C was 108 % of control and 111 % of control (dose: 12.5 mg/kg/injection, schedule: Q01DX009 (ip), vehicle: saline); 107 % of control and 110 % of control (dose: 25.0 mg/kg/injection, schedule: Q01DX009 (ip), vehicle: saline); 111 % of control and 112 % of control and 119 % of control (dose: 50.0 mg/kg/injection, schedule: Q01DX009 (ip), vehicle: saline); 123 % of control and 92 % of control (dose: 100.0 mg/kg/injection, schedule: Q01DX009 (ip), vehicle: saline).

In the case of `Cc1c(Cl)ccc2c1NC(=O)C2(O)CC(=O)c1ccccc1` (centres undefined), the T/C under setting [7] was 99 % of control, the T/C under setting [8] was 97 % of control and the T/C under setting [9] was 99 % of control.

As for `CC1CN(S(=O)(=O)c2cc(Cl)c(Oc3ccc([N+](=O)[O-])cc3Cl)c(Cl)c2)CC(C)O1` (centres undefined), the T/C by setting is: under setting [7], 106 % of control; under setting [8], 101 % of control; under setting [9], 97 % of control.
